The results in this text go back to patent US11180474B2 (BRISTOL-MYERS SQUIBB COMPANY, priority 2016, dated 2021).

One test deals with T1, human TLR9 (Homo sapiens, UniProt Q9NR96).
T1 construct: host or cells: HEK-Blue cells
T1 sequence (Q9NR96 26-1032): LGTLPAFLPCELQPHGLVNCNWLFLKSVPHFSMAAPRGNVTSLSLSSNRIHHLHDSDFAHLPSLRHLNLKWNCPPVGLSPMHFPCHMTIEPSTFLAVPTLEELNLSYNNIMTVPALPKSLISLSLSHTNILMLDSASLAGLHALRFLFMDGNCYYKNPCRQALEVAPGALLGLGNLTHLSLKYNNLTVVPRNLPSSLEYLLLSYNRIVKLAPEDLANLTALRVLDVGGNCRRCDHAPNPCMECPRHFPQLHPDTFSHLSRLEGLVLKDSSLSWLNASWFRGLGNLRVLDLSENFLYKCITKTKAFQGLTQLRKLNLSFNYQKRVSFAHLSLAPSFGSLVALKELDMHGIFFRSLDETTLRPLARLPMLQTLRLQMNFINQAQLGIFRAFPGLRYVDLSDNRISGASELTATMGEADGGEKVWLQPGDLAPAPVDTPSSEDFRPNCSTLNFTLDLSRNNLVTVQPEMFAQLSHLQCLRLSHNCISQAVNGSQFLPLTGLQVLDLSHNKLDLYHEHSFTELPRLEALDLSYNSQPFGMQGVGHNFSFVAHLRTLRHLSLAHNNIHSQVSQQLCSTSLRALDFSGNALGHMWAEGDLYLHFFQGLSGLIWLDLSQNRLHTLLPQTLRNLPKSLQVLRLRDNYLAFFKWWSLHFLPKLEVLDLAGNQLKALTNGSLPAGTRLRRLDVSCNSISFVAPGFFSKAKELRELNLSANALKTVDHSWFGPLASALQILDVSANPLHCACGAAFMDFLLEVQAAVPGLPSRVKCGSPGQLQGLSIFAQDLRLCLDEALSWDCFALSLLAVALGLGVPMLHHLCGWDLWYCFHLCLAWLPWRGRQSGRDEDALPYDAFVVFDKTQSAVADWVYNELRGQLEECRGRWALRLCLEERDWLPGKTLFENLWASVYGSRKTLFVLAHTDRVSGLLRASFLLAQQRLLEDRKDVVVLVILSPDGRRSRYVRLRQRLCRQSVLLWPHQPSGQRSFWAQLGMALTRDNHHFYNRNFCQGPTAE
Nature of the test: TLR9 inhibition reporter assay (HEK-Blue cells, SEAP reporter, ODN2006 stimulation). Format: cell-based. Particulars: HEK-Blue cells overexpressing human TLR9, ODN2006 5 nM. Summed up: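 HEK-Blue cells overexpressing human TLR7, TLR8 or TLR9 carry a SEAP reporter driven by NF-κB/AP-1 sites. Compounds (0.05 nM–50 μM) were preincubated 30 min at room temperature, then cells were stimulated with gardiquimod 7.5 μM (TLR7), R848 15.9 μM (TLR8) or ODN2006 5 nM (TLR9) for 22 h at 37 °C.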
A general note: A reporter such as luciferase makes a cellular process visible.

The next test deals with T2, human TLR8 (Homo sapiens, UniProt Q9NR97).
T2 construct: host or cells: HEK-Blue cells
T2 sequence (Q9NR97 27-1041): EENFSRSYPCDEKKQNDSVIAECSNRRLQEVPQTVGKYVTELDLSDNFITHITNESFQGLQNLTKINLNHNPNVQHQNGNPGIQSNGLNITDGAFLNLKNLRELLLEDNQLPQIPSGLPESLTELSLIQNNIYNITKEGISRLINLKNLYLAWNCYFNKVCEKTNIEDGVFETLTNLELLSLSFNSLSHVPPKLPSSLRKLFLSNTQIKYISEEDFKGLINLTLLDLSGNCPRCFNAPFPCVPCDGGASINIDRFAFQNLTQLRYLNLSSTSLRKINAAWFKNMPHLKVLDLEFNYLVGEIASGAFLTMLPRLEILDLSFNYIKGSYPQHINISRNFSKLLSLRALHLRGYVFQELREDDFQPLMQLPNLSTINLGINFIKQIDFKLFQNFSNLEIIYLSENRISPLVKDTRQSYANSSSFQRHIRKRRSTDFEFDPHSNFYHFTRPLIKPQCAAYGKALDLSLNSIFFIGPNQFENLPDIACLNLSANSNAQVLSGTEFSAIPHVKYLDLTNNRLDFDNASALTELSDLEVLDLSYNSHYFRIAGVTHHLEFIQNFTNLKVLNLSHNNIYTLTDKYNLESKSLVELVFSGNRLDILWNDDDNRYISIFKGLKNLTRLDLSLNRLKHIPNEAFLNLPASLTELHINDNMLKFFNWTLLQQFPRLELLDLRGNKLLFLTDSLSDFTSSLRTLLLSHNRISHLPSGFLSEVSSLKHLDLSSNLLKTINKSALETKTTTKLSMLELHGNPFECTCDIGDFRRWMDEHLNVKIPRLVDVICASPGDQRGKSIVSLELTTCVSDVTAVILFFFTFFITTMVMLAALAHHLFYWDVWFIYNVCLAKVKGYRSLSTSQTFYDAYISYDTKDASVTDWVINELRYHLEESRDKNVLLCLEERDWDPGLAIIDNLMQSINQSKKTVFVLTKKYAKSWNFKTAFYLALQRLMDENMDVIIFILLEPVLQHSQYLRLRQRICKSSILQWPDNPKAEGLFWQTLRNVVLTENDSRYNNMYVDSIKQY
Nature of the test: TLR8 inhibition reporter assay (HEK-Blue cells, SEAP reporter, R848 stimulation). Type of test: cell-based. As to conditions: HEK-Blue cells overexpressing human TLR8, R848 15.9 μM. Summed up: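 SEAP readout via HEK-Blue Detection medium after 22 h at 37 °C, 5% CO2 defines inhibition, normalized between agonist-plus-DMSO wells and a reference inhibitor. Compound dose range 0.05 nM–50 μM; TLR7 cells at 15,000/well (gardiquimod), TLR8 at 20,000/well (R848).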

A value given as a limit tells only on which side of the number the result lay.

With `CNCCN1CCC(c2cc3c(C(C)C)c(-c4ccc(OC)c(OC)c4)[nH]c3cc2C)CC1` [Example 207, 2-(4-(2-(3,4-dimethoxyphenyl)-3-isopropyl-6-methyl-1H-indol-5-yl)piperidin-1-yl)-N-methylethan-1-amine], the IC50 (in general, the concentration that inhibits the measured activity by half) worked out at 2.29 µM on human TLR9 and 46.9 µM on human TLR8.

Turning to `CNCCN1CCC(c2cc3c(C(C)C)c(-c4ccc(OC)c(OC)c4)[nH]c3cc2F)CC1` [Example 208, 2-(4-(2-(3,4-dimethoxyphenyl)-6-fluoro-3-isopropyl-1H-indol-5-yl)piperidin-1-yl)-N-methylethan-1-amine], the IC50 against human TLR9 is 0.374 µM; at human TLR8, 0.035 µM.

Consider `COc1ccc(-c2[nH]c3ccc(C4CCN(C(=O)CN(C)C)CC4)cc3c2C(C)C)cc1OC` [Example 209, 1-(4-(2-(3,4-dimethoxyphenyl)-3-isopropyl-1H-indol-5-yl)piperidin-1-yl)-2-(dimethylamino)ethan-1-one], for which the half-inhibitory concentration (IC50) against human TLR9 was 1.66 µM; at human TLR8 it was 0.024 µM.

Consider `COc1ccc(-c2[nH]c3ccc(C4CCN(C(=O)CNCC(C)O)CC4)cc3c2C(C)C)cc1OC` (centres unmarked) [Example 210, 1-(4-(2-(3,4-dimethoxyphenyl)-3-isopropyl-1H-indol-5-yl)piperidin-1-yl)-2-((2-hydroxypropyl)amino)ethan-1-one], for which the IC50 against human TLR9 amounted to 1.93 µM; against human TLR8, 0.025 µM.

In the case of `COc1ccc(-c2[nH]c3ccc(C4CCN(C(=O)CN5CCC(N6CCCCC6)CC5)CC4)cc3c2C(C)C)cc1OC` [Example 211, 2-([1,4′-bipiperidin]-1′-yl)-1-(4-(2-(3,4-dimethoxyphenyl)-3-isopropyl-1H-indol-5-yl)piperidin-1-yl)ethan-1-one], the IC50 on human TLR9 was found to be 0.99 µM; on human TLR8, 0.025 µM.

For `COc1ccc(-c2[nH]c3ccc(C4CCN(C(=O)CNCCO)CC4)cc3c2C(C)C)cc1OC` [Example 212, 1-(4-(2-(3,4-dimethoxyphenyl)-3-isopropyl-1H-indol-5-yl)piperidin-1-yl)-2-((2-hydroxyethyl)amino)ethan-1-one], the IC50 was 1.19 µM against human TLR9 and 0.02 µM on human TLR8.

With `COc1ccc(-c2[nH]c3ccc(C4CCN(C(=O)CNC5(CO)CCCC5)CC4)cc3c2C(C)C)cc1OC` [Example 213, 1-(4-(2-(3,4-dimethoxyphenyl)-3-isopropyl-1H-indol-5-yl)piperidin-1-yl)-2-((1-(hydroxymethyl)cyclopentyl)amino)ethan-1-one], the IC50 at human TLR9 was determined as 2.07 µM; on human TLR8, 0.018 µM.

For `COc1ccc(-c2[nH]c3ccc(C4CCN(C(=O)CNCC#N)CC4)cc3c2C(C)C)cc1OC` [Example 214, 2-((2-(4-(2-(3,4-dimethoxyphenyl)-3-isopropyl-1H-indol-5-yl)piperidin-1-yl)-2-oxoethyl)amino) acetonitrile], the IC50 was at least 50 µM on human TLR9 and 0.256 µM against human TLR8.

As for `COc1ccc(-c2[nH]c3ccc(C4CCN(C(=O)CNC5CCC(N(C)C)CC5)CC4)cc3c2C(C)C)cc1OC` (centres unmarked) [Example 215, 1-(4-(2-(3,4-dimethoxyphenyl)-3-isopropyl-1H-indol-5-yl)piperidin-1-yl)-2-((4-(dimethylamino)cyclohexyl)amino)ethan-1-one], the IC50 at human TLR9 turned out to be 2.02 µM; on human TLR8, 0.163 µM.

In the case of `COc1ccc(-c2[nH]c3ccc(C4CCN(C(=O)CNC56CC7CC(CC(C7)C5)C6)CC4)cc3c2C(C)C)cc1OC` [Example 217, 2-(((3s,5s,7s)-adamantan-1-yl)amino)-1-(4-(2-(3,4-dimethoxyphenyl)-3-isopropyl-1H-indol-5-yl)piperidin-1-yl)ethan-1-one], the values for the IC50 on human TLR9 and against human TLR8 were 2.13 µM and 0.379 µM, respectively.

In the case of `COc1ccc(-c2[nH]c3ccc(C4CCN(C(=O)CNC56CC7CC(CC(O)(C7)C5)C6)CC4)cc3c2C(C)C)cc1OC` [Example 218, 1-(4-(2-(3,4-dimethoxyphenyl)-3-isopropyl-1H-indol-5-yl)piperidin-1-yl)-2-(((1r,3s,5R,7S)-3-hydroxyadamantan-1-yl)amino)ethan-1-one], the half-inhibitory concentration (IC50) amounted to 1.28 µM at human TLR9 and 0.054 µM against human TLR8.

With `COc1ccc(-c2[nH]c3ccc(C4CCN(C(=O)CNCC(C)(C)CO)CC4)cc3c2C(C)C)cc1OC` [Example 219, 1-(4-(2-(3,4-dimethoxyphenyl)-3-isopropyl-1H-indol-5-yl)piperidin-1-yl)-2-((3-hydroxy-2,2-dimethylpropyl)amino)ethan-1-one], the half-maximal inhibitory concentration (IC50) against human TLR9 was determined as 2.1 µM; on human TLR8, 0.039 µM.

As for `COc1ccc(-c2[nH]c3ccc(C4CCN(C(=O)CNC(CO)CO)CC4)cc3c2C(C)C)cc1OC` [Example 220, 2-((1,3-dihydroxypropan-2-yl)amino)-1-(4-(2-(3,4-dimethoxyphenyl)-3-isopropyl-1H-indol-5-yl)piperidin-1-yl)ethan-1-one], the 50% inhibitory concentration (IC50) against human TLR9 stood at 5.58 µM; against human TLR8, 0.021 µM.
